The source made the active and inactive calls. The calls are words filed in the database; no cut-off is given here.
Experiments:
Tribolium castaneum [1] = test: Antifeedant activity against Tribolium castaneum assessed as feeding deterrence index at 200 ug/disk after 5 days by flour disk assay; type: functional, organism-based
Tribolium castaneum [2] = test: Antifeedant activity against Tribolium castaneum assessed as efficiency of conversion of ingested food at 200 ug/disk after 5 days by flour disk assay; type: functional, Instar larval stage
Tribolium castaneum [3] = test: Antifeedant activity against Tribolium castaneum assessed as relative consumption rate at 200 ug/disk after 5 days by flour disk assay; type: functional
Tribolium castaneum [4] = test: Antifeedant activity against Tribolium castaneum assessed as relative growth rate at 200 ug/disk after 5 days by flour disk assay; type: functional
Tribolium castaneum [5] = test: Insecticidal activity against Tribolium castaneum fifth instar larvae assessed as mortality at 60 ug/uL, treated topically; type: functional
Tribolium castaneum [6] = test: Insecticidal activity against Tribolium castaneum fifth instar larvae assessed as pupal stage duration at 60 ug/uL, treated topically; type: functional
[7] = target: DNA polymerase I, thermostable (Thermus aquaticus, UniProt P19821); test: Inhibition of Thermus aquaticus-DNA polymerase by PCR analysis
[8] = target: DNA polymerase I, thermostable (Thermus aquaticus) (UniProt P19821); test: Inhibition of Thermus aquaticus-DNA polymerase at 500 uM by PCR analysis
DNA polymerase I, thermostable (Thermus aquaticus), sequence (P19821 whole entry): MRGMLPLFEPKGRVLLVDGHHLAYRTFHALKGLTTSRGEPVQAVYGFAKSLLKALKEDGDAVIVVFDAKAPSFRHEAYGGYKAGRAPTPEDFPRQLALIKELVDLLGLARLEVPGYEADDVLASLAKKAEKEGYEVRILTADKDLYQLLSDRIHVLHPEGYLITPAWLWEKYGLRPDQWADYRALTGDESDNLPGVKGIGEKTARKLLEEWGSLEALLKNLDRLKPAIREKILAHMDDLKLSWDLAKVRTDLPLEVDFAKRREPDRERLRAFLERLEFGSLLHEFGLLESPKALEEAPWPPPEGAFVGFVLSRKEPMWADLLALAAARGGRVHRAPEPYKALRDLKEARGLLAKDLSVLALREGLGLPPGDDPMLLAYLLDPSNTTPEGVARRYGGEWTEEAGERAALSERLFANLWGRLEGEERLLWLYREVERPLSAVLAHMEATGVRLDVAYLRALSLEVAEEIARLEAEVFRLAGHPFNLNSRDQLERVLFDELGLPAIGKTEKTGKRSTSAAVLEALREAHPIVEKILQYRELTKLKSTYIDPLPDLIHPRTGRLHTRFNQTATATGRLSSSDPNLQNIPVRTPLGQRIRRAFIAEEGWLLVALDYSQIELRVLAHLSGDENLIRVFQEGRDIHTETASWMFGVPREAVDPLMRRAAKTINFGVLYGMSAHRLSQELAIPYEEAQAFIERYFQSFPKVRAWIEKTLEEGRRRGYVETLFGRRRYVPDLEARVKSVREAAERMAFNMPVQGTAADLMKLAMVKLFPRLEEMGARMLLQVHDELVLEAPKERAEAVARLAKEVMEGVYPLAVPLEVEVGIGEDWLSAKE

DNA polymerase I, thermostable, sequence (P19821 whole entry): as above

Structure (SMILES) | Activity (Tribolium castaneum [1]) | Activity (Tribolium castaneum [2]) | Activity (Tribolium castaneum [3]) | Activity (Tribolium castaneum [4]) | Activity (Tribolium castaneum [5]) | Activity (Tribolium castaneum [6]) | IC50 [7] | Activity [8]
CC(=O)O[C@@]1(C)C[C@@H](O)[C@]2(O)C=CO[C@@H](O[C@@H]3O[C@H](CO)[C@@H](O)[C@H](O)[C@H]3O)[C@@H]21 | inactive | -8.908% | 0.058 mg/mg/day | -0.004 mg/mg/day | 56.6% | 11.3 days | 214 µM | –
CC(=O)OC[C@H]1O[C@@H](O[C@@H]2OC=C[C@H]3[C@H](OC(C)=O)[C@@H]4O[C@]4(COC(C)=O)[C@@H]23)[C@H](OC(C)=O)[C@@H](OC(C)=O)[C@@H]1OC(C)=O | – | – | – | – | – | – | – | inactive
CC(=O)O[C@@H]1[C@@H](OC(C)=O)[C@H](O[C@@H]2OC=C[C@H]3[C@H](OC(C)=O)[C@@H]4O[C@]4(CO[Si](c4ccccc4)(c4ccccc4)C(C)(C)C)[C@@H]23)O[C@H](CO[Si](c2ccccc2)(c2ccccc2)C(C)(C)C)[C@H]1OC(C)=O | – | – | – | – | – | – | – | inactive
CCCCCCCC/C=C\CCCCCCCCOC[C@H]1O[C@@H](O[C@@H]2OC=C[C@H]3[C@H](O)[C@@H]4O[C@]4(COCCCCCCCC/C=C\CCCCCCCC)[C@@H]23)[C@H](O)[C@@H](O)[C@@H]1O | – | – | – | – | – | – | – | inactive
OC[C@H]1O[C@@H](O[C@@H]2OCC[C@H]3[C@H](O)[C@@H]4O[C@]4(CO)[C@@H]23)[C@H](O)[C@@H](O)[C@@H]1O | – | – | – | – | – | – | – | inactive
OC[C@H]1O[C@@H](O[C@@H]2OC=C[C@H]3[C@H](O)[C@@H]4O[C@]4(CO)[C@@H]23)[C@H](O)[C@@H](O)[C@@H]1O [CATALPOL] | inactive | -66.101% | 0.017 mg/mg/day | -0.01 mg/mg/day | 73.3% | 8.2 days | 47.8 µM | –
C[C@]1(O)C[C@@H](O)[C@]2(O)C=CO[C@@H](O[C@@H]3O[C@H](CO)[C@@H](O)[C@H](O)[C@H]3O)[C@@H]21 [HARPAGIDE] | – | – | – | – | – | – | 417 µM | –
C[C@]1(O)C[C@@H](O)[C@]2(O)C=CO[C@@H](O[C@H]3O[C@H](CO)[C@@H](O)[C@H](O)[C@H]3O)[C@@H]21 [HARPAGIDE] | inactive | -30.729% | 0.019 mg/mg/day | -0.003 mg/mg/day | 60% | 12.1 days | – | –

Source: ChEMBL document CHEMBL1146495, “Iridoids as allelochemicals and DNA polymerase inhibitors” (J Nat Prod, 2004)
